Source: patent publication US12247033B2, “Triazole-substituted imidazo[1,2-a]pyrimidines as cGAS inhibitors” (GlaxoSmithKline Intellectual Property Development Limited, priority 2022, dated 2025)
In brackets after ≈: the same amount, converted by molar mass. Structures can show the parent of a compound that is named as a salt.

Columns and labels:
[1] = FaSSIF solubility (Fasted State Simulated Intestinal Fluid); assay type: physicochemical; conditions: thermodynamic from solid, FaSSIF pH 6.5, 4 h equilibration at room temperature, dynamic range 1-1000 μg/mL
Method: 1 mL of FaSSIF buffer (3 mM sodium taurocholate, 0.75 mM lecithin in sodium phosphate buffer at pH 6.5) was added to manually weighed 1 mg of the solid compound in a 4 mL vial. […] The residual solid was removed by filtration. The supernatant solution was quantified by HPLC-UV using single point calibration of a known concentration of the compound in DMSO. The dynamic range of the assay was 1-1000 μg/mL.

CGAS = CGAS whole blood cytokine release assay (384-well, BacMam stimulation, IP-10 by cytometric bead array); assay type: cell-based; conditions: Homo sapiens, 6 h; read-out: hWB pXC50 (converted)
Outline: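 Heparinised human donor whole blood mixed with serially diluted compound plus Null BacMam stimulus, incubated 6 h at 37° C, 5% CO2. Supernatant IP-10 quantified by cytometric bead array on flow cytometer (488 nm excitation, 585/40 nm emission); inhibition of IP-10 calculated.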

human CGAS (157-522) = human CGAS (157-522) (Homo sapiens, UniProt Q8N884); assay: biochemical;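 note: biochemical enzyme reaction, 2′3′-cGAMP product measured by RapidFire mass spectrometry (MRM) normalised to c-di-UMP internal standard, inhibition of product formation relative to high and low control wells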
Chain of human CGAS (157-522) (Q8N884 157-522): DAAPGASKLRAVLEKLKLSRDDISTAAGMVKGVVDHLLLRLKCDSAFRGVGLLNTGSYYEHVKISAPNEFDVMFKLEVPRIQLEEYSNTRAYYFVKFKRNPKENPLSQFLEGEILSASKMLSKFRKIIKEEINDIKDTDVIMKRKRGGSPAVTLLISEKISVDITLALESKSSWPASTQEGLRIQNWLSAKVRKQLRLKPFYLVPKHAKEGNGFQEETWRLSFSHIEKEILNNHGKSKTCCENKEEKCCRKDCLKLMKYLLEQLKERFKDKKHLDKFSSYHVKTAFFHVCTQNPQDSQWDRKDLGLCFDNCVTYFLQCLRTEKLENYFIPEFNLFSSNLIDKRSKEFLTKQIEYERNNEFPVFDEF

SMILES | solubility at 4 h [1] [µg/mL] | IC50 (CGAS) [nM] | IC50 (human CGAS (157-522)) [nM]
FC(F)(F)c1n[nH]c(-c2nc3ncccn3c2-c2c[nH]cn2)n1 [Example 1, 5-[3-(1H-imidazol-4-yl)imidazo[1,2-a]pyrimidin-2-yl]-3-(trifluoromethyl)-1H-1,2,4-triazole] | 4 (≈ 12.5 µM) | 158 | –
O=C(O)CCC(=O)OCn1cnc(-c2c(-c3nc(C(F)(F)F)n[nH]3)nc3ncccn23)c1 [Example 23, 4-oxo-4-[(4-{2-[3-(trifluoromethyl)-1H-1,2,4-triazol-5-yl]imidazo[1,2-a]pyrimidin-3-yl}-1H-imidazol-1-yl)methoxy]butanoic acid] | 455 (≈ 1010 µM) | 794 | 251
CNCC(=O)OCc1cccnc1N(C)C(=O)OC(C)n1cncc1-c1c(-c2nc(C(F)(F)F)n[nH]2)nc2ncccn12 (stereo not shown) [Example 25, {2-[methyl({[1-(5-{2-[3-(trifluoromethyl)-1H-1,2,4-triazol-5-yl]imidazo[1,2-a]pyrimidin-3-yl}-1H-imidazol-1-yl)ethoxy]carbonyl})amino]pyridin-3-yl}methyl 2-(methylamino)acetate, hydrochloride salt] | > 1000 | 316 | 25.1
O=P(O)(O)OCn1nc(C(F)(F)F)nc1-c1nc2ncc(F)cn2c1-c1cnc[nH]1 [Example 34, ({5-[6-fluoro-3-(1H-imidazol-5-yl)imidazo[1,2-a]pyrimidin-2-yl]-3-(trifluoromethyl)-1H-1,2,4-triazol-1-yl}methoxy)phosphonic acid] | > 1000 | – | 794
FC(F)(F)c1n[nH]c(-c2nc3nc4c(cn3c2-c2c[nH]cn2)C2CCC(C4)O2)n1 (stereo not shown) [Example 136, 5-(1H-imidazol-4-yl)-6-[3-(trifluoromethyl)-1H-1,2,4-triazol-5-yl]-15-oxa-4,7,9-triazatetracyclo[10.2.1.0^2,^10.0^4,^8]pentadeca-2,5,7,9-tetraene] | – | 316 | 7.94
FC(F)(F)c1n[nH]c(-c2nc3ncc(COCCCC4CCCO4)cn3c2-c2cnc[nH]2)n1 (stereo not shown) [Example 140, 5-[3-(1H-imidazol-5-yl)-6-{[3-(oxolan-2-yl)propoxy]methyl}imidazo[1,2-a]pyrimidin-2-yl]-3-(trifluoromethyl)-1H-1,2,4-triazole] | – | 794 | 12.6
OCCCCCOCc1cnc2nc(-c3nc(C(F)(F)F)n[nH]3)c(-c3cnc[nH]3)n2c1 [Example 142, 5-{[3-(1H-imidazol-5-yl)-2-[3-(trifluoromethyl)-1H-1,2,4-triazol-5-yl]imidazo[1,2-a]pyrimidin-6-yl]methoxy}pentan-1-ol] | – | 794 | 3.98
FC(F)(F)c1n[nH]c(-c2nc3ncc(COCCC4COCCO4)cn3c2-c2c[nH]cn2)n1 (stereo not shown) [Example 145, 5-(6-{[2-(1,4-dioxan-2-yl)ethoxy]methyl}-3-(1H-imidazol-4-yl)imidazo[1,2-a]pyrimidin-2-yl)-3-(trifluoromethyl)-1H-1,2,4-triazole] | – | 1000 | 10
CC(=O)N1CCC(COCc2cnc3nc(-c4nc(C(F)(F)F)n[nH]4)c(-c4c[nH]cn4)n3c2)C1 (stereo not shown) [Example 149, 1-[3-({[3-(1H-imidazol-4-yl)-2-[3-(trifluoromethyl)-1H-1,2,4-triazol-5-yl]imidazo[1,2-a]pyrimidin-6-yl]methoxy}methyl)pyrrolidin-1-yl]ethan-1-one] | – | 10000 | 10
CC(C)(COCc1cnc2nc(-c3nc(C(F)(F)F)n[nH]3)c(-c3c[nH]cn3)n2c1)n1ccnc1 [Example 150, 5-(6-{[2-(1H-imidazol-1-yl)-2-methylpropoxy]methyl}-3-(1H-imidazol-4-yl)imidazo[1,2-a]pyrimidin-2-yl)-3-(trifluoromethyl)-1H-1,2,4-triazole] | – | 5010 | 5.01
CCCOc1cnc2nc(-c3nc(C(F)(F)F)n[nH]3)c(-c3cnc[nH]3)n2c1 [Example 154, 5-[3-(1H-imidazol-5-yl)-6-propoxyimidazo[1,2-a]pyrimidin-2-yl]-3-(trifluoromethyl)-1H-1,2,4-triazole] | – | 501 | 3.98
FC(F)(F)c1n[nH]c(-c2nc3ncc(COCC4CC45CCOC5)cn3c2-c2c[nH]cn2)n1 (stereo not shown) [Example 155, 5-[3-(1H-imidazol-4-yl)-6-[{{5-oxaspiro[2.4]heptan-1-yl}methoxy)methyl]imidazo[1,2-a]pyrimidin-2-yl]-3-(trifluoromethyl)-1H-1,2,4-triazole] | – | 501 | 7.94
CC1COC(COCc2cnc3nc(-c4nc(C(F)(F)F)n[nH]4)c(-c4c[nH]cn4)n3c2)C1 (stereo not shown) [Example 156, 5-[3-(1H-imidazol-4-yl)-6-{[(4-methyloxolan-2-yl)methoxy]methyl}imidazo[1,2-a]pyrimidin-2-yl]-3-(trifluoromethyl)-1H-1,2,4-triazole] | – | 631 | 10
FC(F)(F)c1n[nH]c(-c2nc3ncc(COC4CCC4)cn3c2-c2c[nH]cn2)n1 [Example 157, 5-[6-(cyclobutoxymethyl)-3-(1H-imidazol-4-yl)imidazo[1,2-a]pyrimidin-2-yl]-3-(trifluoromethyl)-1H-1,2,4-triazole] | – | 251 | 2.51
FC(F)CN1CC(Oc2cnc3nc(-c4nc(C(F)(F)F)n[nH]4)c(-c4cnc[nH]4)n3c2)C1 [Example 162, 5-(6-{[1-(2,2-difluoroethyl)azetidin-3-yl]oxy}-3-(1H-imidazol-5-yl)imidazo[1,2-a]pyrimidin-2-yl)-3-(trifluoromethyl)-1H-1,2,4-triazole] | – | 1000 | 7.94
CCOc1cnc2nc(-c3nc(C(F)(F)F)n[nH]3)c(-c3cnc[nH]3)n2c1 [Example 163, 5-[6-ethoxy-3-(1H-imidazol-5-yl)imidazo[1,2-a]pyrimidin-2-yl]-3-(trifluoromethyl)-1H-1,2,4-triazole] | – | 794 | 10
COC(C)c1cnc2nc(-c3nc(C(F)(F)F)n[nH]3)c(-c3c[nH]cn3)n2c1 (stereo not shown) [Example 165, 5-[3-(1H-imidazol-4-yl)-6-(1-methoxyethyl)imidazo[1,2-a]pyrimidin-2-yl]-3-(trifluoromethyl)-1H-1,2,4-triazole] | – | 200 | 6.31

The remaining lines, values ahead:

solubility at 4 h [1] [µg/mL] | IC50 (CGAS) [nM] | IC50 (human CGAS (157-522)) [nM] | SMILES
324 | – | 63.1 | CC(C)[C@H](N)C(=O)OCn1cnc(-c2c(-c3nc(C(F)(F)F)nn3COC(=O)[C@@H](N)C(C)C)nc3ncccn23)c1 [Example 24, (4-{2-[1-({[(2S)-2-amino-3-methylbutanoyl]oxy}methyl)-3-(trifluoromethyl)-1H-1,2,4-triazol-5-yl]imidazo[1,2-a]pyrimidin-3-yl}-1H-imidazol-1-yl)methyl (2S)-2-amino-3-methylbutanoate, 2 trifluoroacetic acid salt]
298 | 158 | – | CNCCOC(=O)OCn1cnc(-c2c(-c3nc(C(F)(F)F)nn3COC(=O)OCCNC)nc3ncccn23)c1 [Example 27, [4-(2-{1-[({[2-(methylamino)ethoxy]carbonyl}oxy)methyl]-3-(trifluoromethyl)-1H-1,2,4-triazol-5-yl}imidazo[1,2-a]pyrimidin-3-yl)-1H-imidazol-1-yl]methyl 2-(methylamino)ethyl carbonate, 2 trifluoroacetic acid salt]
– | 398 | 7.94 | FC(F)(F)c1n[nH]c(-c2nc3ncc(COCCC4CCOC4)cn3c2-c2cnc[nH]2)n1 (stereo not shown) [Example 139, 5-[3-(1H-imidazol-5-yl)-6-{[2-(oxolan-3-yl)ethoxy]methyl}imidazo[1,2-a]pyrimidin-2-yl]-3-(trifluoromethyl)-1H-1,2,4-triazole]
– | 316 | 3.98 | FC(F)(F)c1n[nH]c(-c2nc3ncc(COCCC4CCCO4)cn3c2-c2cnc[nH]2)n1 (stereo not shown) [Example 141, 5-[3-(1H-imidazol-5-yl)-6-{[2-(oxolan-2-yl)ethoxy]methyl}imidazo[1,2-a]pyrimidin-2-yl]-3-(trifluoromethyl)-1H-1,2,4-triazole]
– | 2510 | 3.98 | CC(COCc1cnc2nc(-c3nc(C(F)(F)F)n[nH]3)c(-c3c[nH]cn3)n2c1)n1ccnc1 (stereo not shown) [Example 143, 5-(6-{[2-(1H-imidazol-1-yl)propoxy]methyl}-3-(1H-imidazol-4-yl)imidazo[1,2-a]pyrimidin-2-yl)-3-(trifluoromethyl)-1H-1,2,4-triazole]
– | 2000 | 6.31 | FC(F)(F)c1n[nH]c(-c2nc3ncc(COCCn4cccn4)cn3c2-c2c[nH]cn2)n1 [Example 146, 5-[3-(1H-imidazol-4-yl)-6-{[2-(1H-pyrazol-1-yl)ethoxy]methyl}imidazo[1,2-a]pyrimidin-2-yl]-3-(trifluoromethyl)-1H-1,2,4-triazole]
– | 398 | 5.01 | FC(F)(F)COc1cnc2nc(-c3nc(C(F)(F)F)n[nH]3)c(-c3cnc[nH]3)n2c1 [Example 160, 5-[3-(1H-imidazol-5-yl)-6-(2,2,2-trifluoroethoxy)imidazo[1,2-a]pyrimidin-2-yl]-3-(trifluoromethyl)-1H-1,2,4-triazole]
– | 251 | 5.01 | FC(F)(F)c1n[nH]c(-c2nc3ncc(OC4CCOC4)cn3c2-c2cnc[nH]2)n1 (stereo not shown) [Example 161, 5-[3-(1H-imidazol-5-yl)-6-(oxolan-3-yloxy)imidazo[1,2-a]pyrimidin-2-yl]-3-(trifluoromethyl)-1H-1,2,4-triazole]
